In patent US8946201B2, “Methods for inhibiting TGF-β” (Saint Louis University, priority 2007, dated 2015):

What was measured:
TβR-II = assay: TGF-β1-induced degradation of TβR-II, Western blot; type: cell-based; details: 1% β-CD
Procedure: (E) Cells were treated with several concentrations of cholesterol (a,b) or LDL (c,d) as indicated in the presence and absence of 1% β-CD at 37° C. for 1 hr and further incubated with 50 pM TGF-β for 1 hr. The cell lysates were then subjected to 7.5% SDS-PAGE and Western blot analysis using antibodies to TβR-II and α-actin (a,c). The relative intensities of TβR-II and α-actin on the blot were quantified by densitometry (b,d). The ratio of the relative intensities of TβR-II and α-actin in cells treated without TGF-β1 was taken as the 100% level of TβR-II.
(F, G) Cells were treated with or without 1 μM lovastatin/fluvastatin or nystatin (25 μg/ml)/cholesterol (50 μg/ml) at 37° C. for 16 hr or 1 hr, respectively. The treated cells were directly analyzed by sucrose density gradient ultracentrifugation analysis (F) or further incubated with 50 pM TGF-β at 37° C. for several time periods as indicated (G). Western blot analysis of the sucrose density gradient fractions (F) and of TGF-β1-treated cell lysates (G) was performed using antibody to TβR-II. The relative levels of TβR-II and α-actin were quantified by densitometry. Fractions ⅘ and 7 represent lipid raft/caveolae and non-lipid raft fractions, respectively. […] The quantitative data from three independent analyses is shown (G, bottom). […]
Cells grown to near confluence on 12-well cluster dishes were treated with cholesterol or LDL in serum-free DMEM (vol.=0.5 ml/well) at 37° C. for 1 hr. […] Treated cells were lysed and cell lysates were analyzed by 7.5% SDS-PAGE and Western blot analysis using anti-Smad2, anti-P-Smad2, anti-caveolin-1, anti-TβR-I (alk5) or anti-TβR-II antibodies as described previously (30). […]
Lipid raft/caveolae-mediated endocytosis of receptor-bound TGF-β results in rapid degradation of TGF-β1 and suppression of TGF-β responsiveness. […] To test this, we analyzed the lipid raft/caveolae and non-lipid raft localization of TβR-I and TβR-II in the plasma membrane of cells treated with or without cholesterol (50 μg/ml) using sucrose density gradient ultracentrifugation analysis. […]

TβR-I and TβR-II = assay: 125I-TGF-β1 affinity labeling, Mv1Lu cells; type: cell-based, mink; details: for effect on the LDL- or cholesterol-induced increase of 125I-TGF-β1 binding to TβR-I: co-treatment, β-CD 8 mM, nystatin 25 μg/ml, cholest-4-en-3-one 50 μg/ml (FIG. 4B, C)
Procedure: (A) Mv1Lu cells were treated with 50 μg/ml cholesterol at 37° C. After several time periods, as indicated, ^125I-TGF-β1-affinity labeling was performed at 0° C. ^125I-TGF-β1 affinity-labeled TGF-β receptors were analyzed by 7.5% SDS-PAGE and autoradiography (a) and quantified with a PhosphoImager. The bracket indicates the locations of ^125I-TGF-β1 affinity-labeled TβR-I and TβR-II. The ratio of ^125I-TGF-β1 binding to TβR-II and TβR-I is plotted against incubation time (b).
(B, C, D, E) Cells were treated with increasing concentrations of cholesterol in the presence (C) and absence (B, D, E) of 0.2% β-CD, as indicated. After 1 hr at 37° C., ^125I-TGF-β1 affinity labeling of TβR-I and TβR-II in cells was performed at 0° C. ^125I-TGF-β1 affinity-labeled TβR-I and TβR-II were analyzed by 7.5% SDS-PAGE and autoradiography or quantified with a PhosphoImager. A representative of a total of three analyses is shown (top). The bracket indicates the locations of ^125I-TGF-β affinity-labeled TβR-I and TβR-II. The relative intensities of ^125I-TGF-β1 affinity-labeled TβR-I and TβR-II in cells treated without cholesterol were taken as 100%. The quantitative data from three analyses is shown (bottom).
The bracket indicates the locations of ^125I-TGF-β1 affinity-labeled TβR-I and TβR-II. The relative intensities of ^125I-TGF-β1-TβR-I and ^125I-TGF-β1-TβR-II complexes, which were quantified with a PhosphoImager, are plotted against TGF-β1 concentrations (bottom).
(A, B, C, D, E, F) Cells were treated with LDL (50 μg protein/ml), VLDL (5 μg protein/ml), HDL (50 μg protein/ml), lipoprotein (a) (10 μg/ml), fluvastatin (F; 1 μM), lovastatin (L; 1 μM), nystatin (Nys; 25 μg/ml), β-CD (β-CD; 8 mM), cholest-4-en-3-one (3-one; 50 μg/ml) or cholesterol (Chol; 50 μg/ml) alone or combination of two. After 1 hr at 37° C. or 16 hr at 37° C. (for fluvastatin and lovastatin), ^125I-TGF-β1 affinity labeling of cell-surface TGF-β receptors was performed at 0° C. ^125I-TGF-β1 affinity-labeled TβR-I and TβR-II were analyzed by 7.5% SDS-PAGE and autoradiography. The relative intensities of TβR-I and TβR-II were quantified with a PhosphoImager. The ratio of ^125I-TGF-β1 binding to TβR-II and TβR-I were estimated. The numbers above the lane sequence denote the ratio of TβR-II/TβR-I.
(G) Mv1Lu cells were treated with 50 μg/ml of cholesterol and cholesterol analogs/derivatives including 25-hydroxycholesterol, 7-dehydrocholesterol (7-DHC), 7-ketocholesterol, 7β, 8β-epoxycholesterol, 7β-hydroxycholesterol, and oxidized 7-dehydrocholesterol (oxy-7DHC). After 1 hr at 37° C., ^125I-TGF-β1 affinity labeling of TGF-β receptors was performed. ^125I-TGF-β1 affinity-labeled TβR-I and TβR-II were analyzed by 7.5% SDS-PAGE and autoradiography. The bracket indicates the locations of ^125I-TGF-β1-affinity-labeled TβR-I and TβR-II. The relative intensities of ^125I-TGF-β1 affinity-labeled TβR-I and TβR-II were determined by a PhosphoImager. The ratios of ^125I-TGF-β1 binding to TβR-II and TβR-I were estimated. The numbers above the lane sequence denote the ratio of TβR-II/TβR-I.
After cross-linking, cell lysates were analyzed by 7.5% SDS-PAGE and autoradiography or quantified by a PhosphoImager. For all experiments, cholesterol or cholesterol derivatives were prepared as the stock solution with a concentration of 25 mg/ml in ethanol. The final concentration of ethanol in the medium was 0.2% (by vol.).

Mv1Lu cells = assay: [Methyl-3H]thymidine incorporation (DNA synthesis), Mv1Lu cells; type: cell-based, mink; details: 18 hr
Procedure: (A, B, C, D, E, F) Cells were treated with 50 μg/ml cholesterol (A, B, C, D) and 50 μg/ml LDL (D) at 37° C. for 1 hr or with 1 μM fluvastatin or lovastatin (E) or several concentrations of fluvastatin (F) at 37° C. for 16 hr and then further incubated with increasing concentrations (as indicated) of TGF-β1 (A, B, C, E) or 50 pM TGF-β1 (D,F) for 2 hr. Northern blot analysis of PAI-1 and G3PDH was performed. A representative of a total of three analyses is shown (a). The relative intensities of the transcripts were quantified with a PhosphoImager. The ratio of the relative intensities of PAI-1 and G3PDH transcripts in cells treated without TGF-β1 and cholesterol, LDL or statins on the blot was taken as 1 fold or 100% of PAI-1 expression. The quantitative data from three independent analyses is shown (b). […] (G) Mv1Lu cells stably expressing a luciferase reporter gene driven by the PAI-1 promoter (MLECs-clone 32) were treated with increasing concentrations (as indicated) of cholesterol at 37 EC for 1 hr (a) or with 1 μM lovastatin at 37° C. for 16 hr (b) and then further incubated with 50 pM TGF-β for 7 hr. The luciferase activity in cells treated without cholesterol was taken as 100% (a). […] (H) Cells were incubated with 0.0625 and 0.125 pM TGF-β1 in the presence of increasing concentrations of cholesterol, as indicated. After 18 hr at 37° C., cell growth was determined by measurement of [^3H-methyl]thymidine incorporation into cellular DNA (a). The [^3H-methyl]thymidine incorporation in cells treated with vehicle only (T1); with TGF-β1 (T2); with cholesterol (T3); with cholesterol and TGF-β1 (T4) was measured. T1 was taken as 100%. The degree (%) of cholesterol-mediated reversal of TGF-β1 growth inhibition was estimated by the equation: % reversal=[1−(T3−T4/T1−T2)]×100 Cholesterol appeared to reverse TGF-β1 growth inhibition in a dose-dependent manner (b). The experiments were carried out in triplicate.
The growth of cholesterol-treated cells was determined by measurement of [methyl-^3H]thymidine incorporation into cellular DNA as described (30). Briefly, cells grown near confluence on 48-well clustered dishes were treated with several concentrations of cholesterol at 37° C. for 1 hr in serum-free DMEM. The final concentration of ethanol (the vehicle for cholesterol) in the medium was 0.2%. […] The [methyl-^3H]thymidine incorporation into cellular DNA was then determined by incubation of cells with [methyl-^3H]thymidine at 37° C. for 2 hr in DMEM containing 0.1% fetal calf serum. […]
Another prominent biological activity of TGF-β is growth inhibition of many different cell types. […] DNA synthesis was then determined by measurement of [^3H-methyl]thymidine incorporation into cellular DNA (FIG. 2Ha). […]

OC[C@H]1O[C@@H]2O[C@H]3[C@H](O)[C@@H](O)[C@@H](O[C@H]4[C@H](O)[C@@H](O)[C@@H](O[C@H]5[C@H](O)[C@@H](O)[C@@H](O[C@H]6[C@H](O)[C@@H](O)[C@@H](O[C@H]7[C@H](O)[C@@H](O)[C@@H](O[C@H]8[C@H](O)[C@@H](O)[C@@H](O[C@H]1[C@H](O)[C@H]2O)O[C@@H]8CO)O[C@@H]7CO)O[C@@H]6CO)O[C@@H]5CO)O[C@@H]4CO)O[C@@H]3CO [β-CD, β-cyclodextrin, reference compound]
effect on the cholesterol-enhanced TGF-β1-induced degradation of TβR-II (TβR-II): abolished | effect on the LDL- or cholesterol-induced increase of 125I-TGF-β1 binding to TβR-I (TβR-I and TβR-II): abolished

CC(C)CCC[C@@H](C)[C@H]1CC[C@H]2[C@@H]3CCC4=CC(=O)CC[C@]4(C)[C@H]3CC[C@]12C [4-cholesten-3-one, reference compound]
effect on the LDL- or cholesterol-induced increase of 125I-TGF-β1 binding to TβR-I (TβR-I and TβR-II): abolished

TGF-β1: transforming growth factor-beta 1, 25-kDa dimeric cytokine; also used 125I-labelled
inhibition of DNA synthesis (Mv1Lu cells; 0.0625 pM): ~30% | inhibition of DNA synthesis (Mv1Lu cells; 0.125 pM): ~40% | half-maximum concentrations of binding to TβR-I and TβR-II (TβR-I and TβR-II; Mv1Lu cells treated with and without cholesterol, 0° C. 2.5 hr): 50 to 80 pM | Kd (TβR-I and TβR-II; stated identical to the half-maximum concentration, read-out: apparent Kd of binding to the TGF-β receptors): 0.05 to 0.08 nM
